Laboratory results as given in US20110105623A1 (Biogenic Innovations, LLC, priority 2009, published 2011).

How the values were obtained:
Salmonella typhimurium = experiment: USP AET, MSM in TSB; type: cell-based; set-up: key: Colonies too numerous to count (TNTC); conditions: 48 hrs
Bifidobacterium bifidum = experiment: Growth in MRS broth fortified with MSM (anaerobic); type: cell-based; conditions: for log higher than the 0% MSM control: 48 hours
Procedure: Each organism (Lactobacillus rhamnosus, Lactobacillus acidophilus, and Bifidobacterium bifidum) was grown in MRS bacterial growth medium (broth) and plated on MRS agar at different time intervals. Results are expressed in colony forming units per milliliter (cfu/mL).
The 0.1% and 0.04% test concentrations were prepared by making a 1:10 dilution of the 1% and 0.4% test solutions. Once each set of test media was plated for sterility, they were inoculated at a level of 100 μl of inoculum per 100 g or mLs of test broth (1:1000 inoculum dilutions) with each respective microorganism. All bacterial organisms were incubated at 35° C.+/−2° C. for the duration of the study.
All samples were plated on MRS agar at time 0, 12, 36, 48, 60 and 72 hours (+/−45 minutes). All preparations and plating were conducted at room temperature. All plating events were incubated at 35° C.+/−2° C. for at least 2 days or 3 days for Bifidobacterium. Test samples were plated in triplicate at each test date and the averages are reported.
Bifidobacterium bifidum, a common microbe used in probiotics, was also tested. All Bifidobacterium samples were incubated under anaerobic conditions.

Chlorella minutissima = experiment: Algal growth by percent transmittance at 750 nm; type: cell-based
Procedure: Two species of Chlorella were examined for growth—Chlorella sorokiniana a freshwater species and Chlorella minutissima a marine species. […] Growth was measured on day 0, 1, 2, 3, 4, 5, 6, 7, 8, 9 and 10. […] The following media were purchased from UTEX Culture Collection of Algae: Enriched Salt Water Medium and Volvox Dextrose Medium.
The algae were grown for 48 hours in the appropriate medium. The initial suspension was enumerated for each alga and is referred to as the starting inoculums. Chlorella sorokiniana was at 381 million cells per milliliter and Chlorella minutissima was at 19 million cells per milliliter. One milliliter of the algal solution was placed into 9 mLs of medium and mixed by vortexing. […] The tube of algae and MSM were incubated at room temperature with exposure to sunlight. […] Each dilution of MSM for each organism was set up in and analyzed in triplicate for each time interval measured. The samples were measured by percent transmittance on a UV/VIS spectrophotometer at wavelength 750 nm. The medium stock was tested for percent transmittance background levels at every time interval were measured. The lower percent transmittance indicated a higher growth factor.

[1] = test system: Streptococcus Pyogenes (Lancefield group A, #10096); experiment: Bacterial viability by bioluminescent ATP assay

## Methylsulfonylmethane [MSM]
Salmonella typhimurium; 1:100 dilution of MSM
  AET microorganism count: TNTC
Salmonella typhimurium; 1:1000 dilution of MSM
  AET microorganism count: TNTC
Bifidobacterium bifidum; 0.2% MSM
  log increases of Bifidobacterium: 2 log
  log higher than the 0% MSM control: 1 log
Bifidobacterium bifidum; 0.04% MSM
  log higher than the 0% MSM control: 1 log
Chlorella minutissima; MSM 0.5%, Sample Day 0
  Growth, percent transmittance at 750 nm: 93.5%
Chlorella minutissima; MSM 0.5%, Sample Day 1
  Growth, percent transmittance at 750 nm: 70.1%
Chlorella minutissima; MSM 0.5%, Sample Day 2
  Growth, percent transmittance at 750 nm: 45.4%
Chlorella minutissima; MSM 0.5%, Sample Day 3
  Growth, percent transmittance at 750 nm: 32.1%
Chlorella minutissima; MSM 0.5%, Sample Day 4
  Growth, percent transmittance at 750 nm: 27.6%
Chlorella minutissima; MSM 0.5%, Sample Day 5
  Growth, percent transmittance at 750 nm: 26.6%
Chlorella minutissima; MSM 0.5%, Sample Day 6
  Growth, percent transmittance at 750 nm: 25.1%
Chlorella minutissima; MSM 0.5%, Sample Day 7
  Growth, percent transmittance at 750 nm: 23.6%
Chlorella minutissima; MSM 0.5%, Sample Day 8
  Growth, percent transmittance at 750 nm: 22.8%
Chlorella minutissima; MSM 0.5%, Sample Day 9
  Growth, percent transmittance at 750 nm: 20.4%
Chlorella minutissima; MSM 0.5%, Sample Day 10
  Growth, percent transmittance at 750 nm: 18.9%
Chlorella minutissima; MSM 1.0%, Sample Day 0
  Growth, percent transmittance at 750 nm: 91.1%
Chlorella minutissima; MSM 1.0%, Sample Day 1
  Growth, percent transmittance at 750 nm: 80.5%
Chlorella minutissima; MSM 1.0%, Sample Day 2
  Growth, percent transmittance at 750 nm: 40.0%
Chlorella minutissima; MSM 1.0%, Sample Day 3
  Growth, percent transmittance at 750 nm: 31.0%
Chlorella minutissima; MSM 1.0%, Sample Day 4
  Growth, percent transmittance at 750 nm: 27.9%
Chlorella minutissima; MSM 1.0%, Sample Day 5
  Growth, percent transmittance at 750 nm: 26.5%
Chlorella minutissima; MSM 1.0%, Sample Day 6
  Growth, percent transmittance at 750 nm: 25.4%
Chlorella minutissima; MSM 1.0%, Sample Day 7
  Growth, percent transmittance at 750 nm: 24.4%
Chlorella minutissima; MSM 1.0%, Sample Day 8
  Growth, percent transmittance at 750 nm: 23.7%
Chlorella minutissima; MSM 1.0%, Sample Day 9
  Growth, percent transmittance at 750 nm: 21.0%
Chlorella minutissima; MSM 1.0%, Sample Day 10
  Growth, percent transmittance at 750 nm: 19.4%
Chlorella minutissima; MSM 5.0%, Sample Day 0
  Growth, percent transmittance at 750 nm: 68.9%
Chlorella minutissima; MSM 5.0%, Sample Day 1
  Growth, percent transmittance at 750 nm: 87.4%
Chlorella minutissima; MSM 5.0%, Sample Day 2
  Growth, percent transmittance at 750 nm: 76.5%
Chlorella minutissima; MSM 5.0%, Sample Day 3
  Growth, percent transmittance at 750 nm: 62.0%
Chlorella minutissima; MSM 5.0%, Sample Day 4
  Growth, percent transmittance at 750 nm: 52.9%
Chlorella minutissima; MSM 5.0%, Sample Day 5
  Growth, percent transmittance at 750 nm: 52.2%
Chlorella minutissima; MSM 5.0%, Sample Day 6
  Growth, percent transmittance at 750 nm: 50.7%
Chlorella minutissima; MSM 5.0%, Sample Day 7
  Growth, percent transmittance at 750 nm: 51.0%
Chlorella minutissima; MSM 5.0%, Sample Day 8
  Growth, percent transmittance at 750 nm: 51.9%
Chlorella minutissima; MSM 5.0%, Sample Day 9
  Growth, percent transmittance at 750 nm: 47.1%
Chlorella minutissima; MSM 5.0%, Sample Day 10
  Growth, percent transmittance at 750 nm: 44.1%
Chlorella minutissima; MSM 10.0%, Sample Day 0
  Growth, percent transmittance at 750 nm: 49.6%
Chlorella minutissima; MSM 10.0%, Sample Day 1
  Growth, percent transmittance at 750 nm: 49.2%
Chlorella minutissima; MSM 10.0%, Sample Day 2
  Growth, percent transmittance at 750 nm: 50.8%
Chlorella minutissima; MSM 10.0%, Sample Day 3
  Growth, percent transmittance at 750 nm: 51.9%
Chlorella minutissima; MSM 10.0%, Sample Day 4
  Growth, percent transmittance at 750 nm: 52.0%
Chlorella minutissima; MSM 10.0%, Sample Day 5
  Growth, percent transmittance at 750 nm: 51.9%
Chlorella minutissima; MSM 10.0%, Sample Day 6
  Growth, percent transmittance at 750 nm: 54.9%
Chlorella minutissima; MSM 10.0%, Sample Day 7
  Growth, percent transmittance at 750 nm: 56.1%
Chlorella minutissima; MSM 10.0%, Sample Day 8
  Growth, percent transmittance at 750 nm: 58.6%
Chlorella minutissima; MSM 10.0%, Sample Day 9
  Growth, percent transmittance at 750 nm: 41.4%
Chlorella minutissima; MSM 10.0%, Sample Day 10
  Growth, percent transmittance at 750 nm: 36.7%
Chlorella minutissima; MSM 20.0%, Sample Day 0
  Growth, percent transmittance at 750 nm: 30.0%
Chlorella minutissima; MSM 20.0%, Sample Day 1
  Growth, percent transmittance at 750 nm: 33.8%
Chlorella minutissima; MSM 20.0%, Sample Day 2
  Growth, percent transmittance at 750 nm: 51.1%
Chlorella minutissima; MSM 20.0%, Sample Day 3
  Growth, percent transmittance at 750 nm: 54.8%
Chlorella minutissima; MSM 20.0%, Sample Day 4
  Growth, percent transmittance at 750 nm: 57.3%
Chlorella minutissima; MSM 20.0%, Sample Day 5
  Growth, percent transmittance at 750 nm: 57.5%
Chlorella minutissima; MSM 20.0%, Sample Day 6
  Growth, percent transmittance at 750 nm: 57.4%
Chlorella minutissima; MSM 20.0%, Sample Day 7
  Growth, percent transmittance at 750 nm: 57.1%
Chlorella minutissima; MSM 20.0%, Sample Day 8
  Growth, percent transmittance at 750 nm: 55.8%
Chlorella minutissima; MSM 20.0%, Sample Day 9
  Growth, percent transmittance at 750 nm: 45.1%
Chlorella minutissima; MSM 20.0%, Sample Day 10
  Growth, percent transmittance at 750 nm: 30.2%
Chlorella minutissima; MSM […], Sample Day 0
  Growth, percent transmittance at 750 nm: 82.8%
Chlorella minutissima; MSM […], Sample Day 1
  Growth, percent transmittance at 750 nm: 75.1%
Chlorella minutissima; MSM […], Sample Day 2
  Growth, percent transmittance at 750 nm: 59.5%
Chlorella minutissima; MSM […], Sample Day 3
  Growth, percent transmittance at 750 nm: 45.4%
Chlorella minutissima; MSM […], Sample Day 4
  Growth, percent transmittance at 750 nm: 33.6%
Chlorella minutissima; MSM […], Sample Day 5
  Growth, percent transmittance at 750 nm: 32.4%
Chlorella minutissima; MSM […], Sample Day 6
  Growth, percent transmittance at 750 nm: 30.0%
Chlorella minutissima; MSM […], Sample Day 7
  Growth, percent transmittance at 750 nm: 28.6%
Chlorella minutissima; MSM […], Sample Day 8
  Growth, percent transmittance at 750 nm: 27.7%
Chlorella minutissima; MSM […], Sample Day 9
  Growth, percent transmittance at 750 nm: 23.3%
Chlorella minutissima; MSM […], Sample Day 10
  Growth, percent transmittance at 750 nm: 21.1%
[1]
  IC50: 10.26%
